In the supplement of paper PMC11451515:

Tested on: NOMO1
Assay: cell viability relative to DMSO control; higher = less cytotoxic
Details: 48 h
Summary of the method: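 Leukemia cells (NOMO1 or SEM, 500 cells/well; P12-Ichikawa, 1000 cells/well) were seeded in 5 μl in 1536-well plates after at least four passages of adaptation to each medium. They received library compounds in DMSO by pin dosing, 11 threefold points from 47 μM to 0.79 nM. Luminescence with CellTiter-Glo One was read after 48 h at 37°C. Viability is stated per plate relative to DMSO wells, with cell-free wells as background.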

[1] = HPLM + 10% dialyzed FBS, 0.000781 µM
[2] = HPLM + 10% dialyzed FBS, 0.00234 µM
[3] = HPLM + 10% dialyzed FBS, 0.00702 µM
[4] = HPLM + 10% dialyzed FBS, 0.0211 µM
[5] = HPLM + 10% dialyzed FBS, 0.0632 µM
[6] = HPLM + 10% dialyzed FBS, 0.19 µM
[7] = HPLM + 10% dialyzed FBS, 0.569 µM
[8] = HPLM + 10% dialyzed FBS, 1.71 µM
[9] = HPLM + 10% dialyzed FBS, 5.12 µM
[10] = HPLM + 10% dialyzed FBS, 15.4 µM
[11] = HPLM + 10% dialyzed FBS, 46.1 µM
[12] = RPMI 5 mM glucose + 10% FBS, 0.000781 µM
[13] = RPMI 5 mM glucose + 10% FBS, 0.00234 µM
[14] = RPMI 5 mM glucose + 10% FBS, 0.00702 µM
[15] = RPMI 5 mM glucose + 10% FBS, 0.0211 µM
[16] = RPMI 5 mM glucose + 10% FBS, 0.0632 µM
[17] = RPMI 5 mM glucose + 10% FBS, 0.19 µM
[18] = RPMI 5 mM glucose + 10% FBS, 0.569 µM
[19] = RPMI 5 mM glucose + 10% FBS, 1.71 µM
[20] = RPMI 5 mM glucose + 10% FBS, 5.12 µM
[21] = RPMI 5 mM glucose + 10% FBS, 15.4 µM
[22] = RPMI 5 mM glucose + 10% FBS, 46.1 µM
[23] = RPMI 5 mM glucose + 10% dialyzed FBS, 0.000781 µM
[24] = RPMI 5 mM glucose + 10% dialyzed FBS, 0.00234 µM
[25] = RPMI 5 mM glucose + 10% dialyzed FBS, 0.00702 µM
[26] = RPMI 5 mM glucose + 10% dialyzed FBS, 0.0211 µM
[27] = RPMI 5 mM glucose + 10% dialyzed FBS, 0.0632 µM
[28] = RPMI 5 mM glucose + 10% dialyzed FBS, 0.19 µM
[29] = RPMI 5 mM glucose + 10% dialyzed FBS, 0.569 µM
[30] = RPMI 5 mM glucose + 10% dialyzed FBS, 1.71 µM
[31] = RPMI 5 mM glucose + 10% dialyzed FBS, 5.12 µM
[32] = RPMI 5 mM glucose + 10% dialyzed FBS, 15.4 µM
[33] = RPMI 5 mM glucose + 10% dialyzed FBS, 46.1 µM

| SMILES | cell viability [1] [%] | cell viability [2] [%] | cell viability [3] [%] | cell viability [4] [%] | cell viability [5] [%] | cell viability [6] [%] | cell viability [7] [%] | cell viability [8] [%] | cell viability [9] [%] | cell viability [10] [%] | cell viability [11] [%] | cell viability [12] [%] | cell viability [13] [%] | cell viability [14] [%] | cell viability [15] [%] | cell viability [16] [%] | cell viability [17] [%] | cell viability [18] [%] | cell viability [19] [%] | cell viability [20] [%] | cell viability [21] [%] | cell viability [22] [%] | cell viability [23] [%] | cell viability [24] [%] | cell viability [25] [%] | cell viability [26] [%] | cell viability [27] [%] | cell viability [28] [%] | cell viability [29] [%] | cell viability [30] [%] | cell viability [31] [%] | cell viability [32] [%] | cell viability [33] [%] |
| --- | --- | --- | --- | --- | --- | --- | --- | --- | --- | --- | --- | --- | --- | --- | --- | --- | --- | --- | --- | --- | --- | --- | --- | --- | --- | --- | --- | --- | --- | --- | --- | --- | --- |
| CN(C)c1ccc2cc(C(=O)N[C@@H](CCCNC(=N)CCl)C(=O)NCc3ccccc3)ccc2c1 | 108 | 128 | 108 | 121 | 125 | 107 | 112 | 112 | 106 | 87.2 | 14 | 92 | 119 | 104 | 96.3 | 98.5 | 102 | 97 | 98.6 | 100 | 85.4 | 8.34 | 114 | 109 | 103 | 110 | 111 | 119 | 115 | 105 | 105 | 98.7 | 12.5 |
| Cc1[nH]c(/C=C2\C(=O)Nc3ccc([S+](=O)([O-])Cc4c(Cl)cccc4Cl)cc32)c(C)c1C(=O)N1CCC[C@@H]1CN1CCCC1 | 100 | 112 | 97.5 | 83 | 92.8 | 96.4 | 98.2 | 84.3 | 81.2 | 87.7 | 59.9 | 108 | 101 | 89.1 | 93.2 | 88 | 99.9 | 99.3 | 100 | 90.5 | 83.4 | 79.6 | 98.2 | 89.8 | 90.2 | 94.4 | 92.7 | 102 | 85.9 | 91.2 | 86.4 | 84.8 | 72.6 |
| COc1ccnc(C[S+]([O-])c2nc3cc(OC(F)F)ccc3[nH]2)c1OC (stereo not drawn) | 111 | 124 | 119 | 131 | 124 | 134 | 126 | 115 | 134 | 128 | 126 |  |  |  |  |  |  |  |  |  |  |  |  |  |  |  |  |  |  |  |  |  |  |
| N\C1=N\C2=C(N=C[N]2COC(CO)CO)C(=O)N1 | 88.7 | 110 | 116 | 114 | 131 | 120 | 133 | 109 | 110 | 92.2 | 5.43 | 110 | 119 | 114 | 118 | 103 | 107 | 121 | 110 | 116 | 101 | 4.52 | 99.5 | 112 | 99.5 | 102 | 122 | 117 | 117 | 112 | 99.8 | 95.5 | 3.67 |
| CCN(C)C(=O)Oc1cccc([C@H](C)N(C)C)c1 | 110 | 117 | 124 | 128 | 102 | 110 | 122 | 95.3 | 99.9 | 109 | 106 | 95.9 | 102 | 99.3 | 105 | 108 | 94.4 | 108 | 111 | 92.6 | 112 | 98.4 | 101 | 98.3 | 104 | 111 | 109 | 97.7 | 91.6 | 87.1 | 105 | 98.5 | 110 |
| C[C@@H]1C[C@H]2[C@@H]3CC\C4=C\C(=O)\C=C/[C@]4(C)[C@@]3(Cl)[C@@H](O)C[C@]2(C)[C@@]1(OC(=O)C5=CC=CO5)C(=O)CCl | 118 | 109 | 113 | 115 | 118 | 99.2 | 103 | 107 | 81.9 | 71.6 | 84.2 | 112 | 111 | 101 | 102 | 104 | 103 | 108 | 101 | 97.1 | 70.5 | 84.2 | 95.1 | 112 | 106 | 113 | 105 | 110 | 98 | 109 | 97.9 | 65.4 | 79.7 |
| NC(=O)Nc1cc(-c2ccc(CN3CCOCC3)cc2)sc1C(N)=O | 122 | 112 | 121 | 132 | 113 | 68.3 | 71.7 | 91.5 | 84.6 | 74.9 | 48.4 | 100 | 113 | 126 | 101 | 97.6 | 50 | 50.8 | 45.9 | 52.1 | 58.5 | 49.6 | 107 | 99.3 | 108 | 108 | 101 | 55.5 | 46.2 | 47.8 | 56 | 58.3 | 37.2 |
| NCC(=O)Nc1ccc(-n2nc(C(F)(F)F)cc2-c2ccc3c(ccc4ccccc43)c2)cc1 | 129 | 123 | 123 | 137 | 134 | 124 | 138 | 147 | 131 | 108 | 78.1 |  |  |  |  |  |  |  |  |  |  |  |  |  |  |  |  |  |  |  |  |  |  |
| COc1ccc(Nc2cc(-c3cnc(N)nc3)nc(N3CCOCC3)n2)cn1 | 105 | 105 | 84.5 | 97.2 | 83.3 | 87 | 76.6 | 79.9 | 54.7 | 46.8 | 39.6 | 82.6 | 90.2 | 88.2 | 84.4 | 83.4 | 88 | 78.4 | 84.8 | 60.5 | 65.4 | 52.7 | 86.8 | 91.8 | 85.3 | 88 | 91.6 | 76.8 | 71.3 | 75.1 | 56.4 | 56.8 | 44.5 |
| O=C(CCCCCCC(=O)Nc1ccccc1)NO | 92.9 | 102 | 106 | 96.9 | 113 | 104 | 102 | 111 | 67.3 | 38.4 | 5.95 | 81.3 | 94 | 89.2 | 96.4 | 110 | 105 | 109 | 98.9 | 83.3 | 44 | 5 | 74.9 | 90.8 | 102 | 114 | 119 | 105 | 119 | 113 | 88.6 | 57.6 | 6.52 |
| Nc1nc(OCc2ccccc2)c2nc[nH]c2n1 |  |  |  |  |  |  |  |  |  |  |  | 95.7 | 117 | 103 | 109 | 113 | 101 | 133 | 107 | 108 | 108 | 115 | 110 | 119 | 123 | 118 | 128 | 125 | 122 | 110 | 116 | 129 | 123 |
| OCCCNc1cc(-c2ccnc(Nc3cccc(Cl)c3)n2)ccn1 | 106 | 107 | 119 | 119 | 114 | 80.4 | 14.1 | 7.46 | 8.09 | 6.31 | 4.31 | 92.2 | 98.4 | 117 | 111 | 107 | 54.5 | 18.8 | 9.75 | 8.02 | 7.79 | 4.61 | 97.5 | 95.8 | 100 | 106 | 100 | 63.3 | 15.8 | 7.75 | 7.44 | 7.1 | 5.05 |
| CNCC(O)C(O)C(O)C(O)CO.O=C(O)c1ccc(-c2cc3cccnc3c(-c3ccc4nonc4c3)n2)cc1 | 105 | 110 | 115 | 111 | 121 | 126 | 112 | 122 | 112 | 110 | 76.7 | 118 | 119 | 119 | 118 | 115 | 112 | 125 | 106 | 117 | 119 | 102 | 99 | 105 | 124 | 120 | 114 | 111 | 127 | 111 | 111 | 118 | 74.4 |
| C[N+](C)([O-])CCNc1ccc(NCC[N+](C)(C)[O-])c2c1C(=O)c1c(O)ccc(O)c1C2=O | 84.5 | 94.9 | 96.7 | 103 | 108 | 97.2 | 80.6 | 70.2 | 51.2 | 48 | 38.3 | 84.4 | 86.9 | 84.1 | 97.2 | 89.4 | 94.5 | 91.4 | 90.4 | 33 | 55.8 | 19.8 | 90.3 | 93.6 | 92.6 | 92.7 | 102 | 99.6 | 90.5 | 77 | 59.7 | 48.5 | 44 |
| CO[C@@H]1C(N(C)C(=O)c2ccccc2)C[C@H]2O[C@]1(C)n1c3ccccc3c3c4c(c5c6ccccc6n2c5c31)C(=O)NC4=O (stereo partly drawn) | 82.2 | 105 | 90.2 | 106 | 98.1 | 104 | 98.3 | 101 | 58.4 | 40.4 | 10.2 | 76.8 | 90.2 | 83.1 | 91 | 88.4 | 104 | 87 | 89.3 | 53.5 | 47.7 | 8.01 | 71.5 | 78.8 | 78 | 91.7 | 85.1 | 85.4 | 75.3 | 90.6 | 42.7 | 49.1 | 8.58 |
| COc1cc([C@@H]2c3cc4c(cc3[C@@H](O[C@@H]3O[C@@H]5CO[C@@H](c6cccs6)O[C@H]5[C@H](O)[C@H]3O)[C@H]3COC(=O)[C@H]23)OCO4)cc(OC)c1O | 92.7 | 97.4 | 115 | 111 | 103 | 89.6 | 97.7 | 34.3 | 116 | 31.1 | 13.8 | 85.3 | 85.6 | 89.7 | 97.2 | 81.7 | 99.3 | 91.2 | 22.9 | 101 | 22.4 | 12.7 | 89.5 | 82.9 | 91 | 89.6 | 93.2 | 90.6 | 101 | 32.4 | 99.3 | 25.2 | 16.7 |
